Data: US12312293B2, “Branched tail lipid compounds and compositions for intracellular delivery of therapeutic agents” (ModernaTX, Inc., priority 2019, dated 2025)

Tests used:
[1] = Characteristics of lipid nanoparticles (size, PDI, encapsulation efficiency); format: physicochemical; conditions: LNP with DSPC, cholesterol, PEG-1 and the compound; for % EE: encapsulation efficiency; for PDI: polydispersity index
From the text: Lipid nanoparticles (e.g., empty LNPs or loaded LNPs) may be characterized by a variety of methods. For example, microscopy (e.g., transmission electron microscopy or scanning electron microscopy) may be used to examine the morphology and size distribution of a nanoparticle composition. Dynamic light scattering or potentiometry (e.g., potentiometric titrations) may be used to measure zeta potentials. Dynamic light scattering may also be utilized to determine particle sizes. Instruments such as the Zetasizer Nano ZS (Malvern Instruments Ltd, Malvern, Worcestershire, UK) may also be used to measure multiple characteristics of a nanoparticle composition, such as particle size, polydispersity index, and zeta potential.
The efficiency of encapsulation of a therapeutic and/or prophylactic describes the amount of therapeutic and/or prophylactic that is encapsulated or otherwise associated with a lipid nanoparticle (e.g., an empty LNP or a loaded LNP) after preparation, relative to the initial amount provided. The encapsulation efficiency is desirably high (e.g., close to 100%). The encapsulation efficiency may be measured, for example, by comparing the amount of therapeutic and/or prophylactic in a solution containing the lipid nanoparticle (e.g., an empty LNP or a loaded LNP) before and after breaking up the lipid nanoparticle (e.g., an empty LNP or a loaded LNP) with one or more organic solvents or detergents. Fluorescence may be used to measure the amount of free therapeutic and/or prophylactic (e.g., RNA) in a solution. For the lipid nanoparticles (e.g., empty LNPs or loaded LNPs) described herein, the encapsulation efficiency of a therapeutic and/or prophylactic may be at least 50%, for example 50%, 55%, 60%, 65%, 70%, 75%, 80%, 85%, 90%, 91%, 92%, 93%, 94%, 95%, 96%, 97%, 98%, 99%, or 100%. In some embodiments, the encapsulation efficiency may be at least 80%. In certain embodiments, the encapsulation efficiency may be at least 90%. In some embodiments, the encapsulation efficiency of the therapeutic and/or prophylactic agent is between 80% and 100%.
Lipid nanoparticles (e.g., empty LNPs or loaded LNPs) including DSPC as a phospholipid, cholesterol as a structural lipid, PEG-1 as a PEG lipid, and a compound according to Formula (1-1), (2-1), (I-a), (A), (B), (A-1), (A-2), (A-3), (IA), (IB), (B-1), (B-2), (B-3), (A-a), (A-a1), (A-a2), (A-a3), (A-b), (A-b1), (A-b2), (A-b3), (A-c), or (B-c) were prepared. Tables 2a and 2b summarize the characteristics of the formulations.

[2] = Residual lipid levels in the liver of mice after LNP administration; format: in vivo; conditions: calculation assumes a 25 g mouse with a 1.5 g liver

With `CCCCCC(CCCCC)CCOC(=O)CCCCCCCN(CCCCCCCC(=O)OC(CCCC)CCCC)CCCNc1c(NC)c(=O)c1=O` [Compound 58, Nonan-5-yl 8-((3-((2-(methylamino)-3,4-dioxocyclobut-1-en-1-yl)amino)propyl)(8-oxo-8-((3-pentyloctyl)oxy)octyl)amino)octanoate] the “Size (nm)” value [1] was 63.9 nm, the “% EE” value [1] was 90.1% and the PDI [1] was 0.12.
In the case of `CCCCC(CCCC)CCOC(=O)CCCCCCCN(CCCCCCCC(=O)OCCC(CCCC)CCCC)CCCNc1c(NC)c(=O)c1=O` [Compound 55, Bis(3-butylheptyl) 8,8′-((3-((2-(methylamino)-3,4-dioxocyclobut-1-en-1-yl)amino)propyl)azanediyl)dioctanoate], the “Size (nm)” value [1] is reported as 77.0 nm, the “% EE” value [1] is reported as 88.9% and the PDI [1] is reported as 0.25.
For `CCCCCC(CCCCC)CCOC(=O)CCCCCCCN(CCCCCCCC(=O)OCCC(CCC)CCC)CCCNc1c(NC)c(=O)c1=O` [Compound 51, 3-Pentyloctyl 8-((3-((2-(methylamino)-3,4-dioxocyclobut-1-en-1-yl)amino)propyl)(8-oxo-8-((3-propylhexyl)oxy)octyl)amino)octanoate], the “Size (nm)” value [1] was 58.3 nm, the “% EE” value [1] was 95.9% and the PDI [1] was 0.12.
In the case of `CCCCC(CCCC)CCOC(=O)CCCCCCCN(CCCCCCCC(=O)OC(CCCC)CCCC)CCCNc1c(NC)c(=O)c1=O` [Compound 62, 3-Butylheptyl 8-((3-((2-(methylamino)-3,4-dioxocyclobut-1-en-1-yl)amino)propyl)(8-(nonan-5-yloxy)-8-oxooctyl)amino)octanoate], the “Size (nm)” value [1] is reported as 91.0 nm, the “% EE” value [1] is reported as 83.0% and the PDI [1] is reported as 0.17.
With `CCCCCCC(CCCCCC)OC(=O)CCCCCCCN(CCCCCCCC(=O)OCCC(CCC)CCC)CCCNc1c(NC)c(=O)c1=O` [Compound 64, 3-Propylhexyl 8-((3-((2-(methylamino)-3,4-dioxocyclobut-1-en-1-yl)amino)propyl)(8-oxo-8-(tridecan-7-yloxy)octyl)amino)octanoate] the “Size (nm)” value [1] was 73.6 nm, the “% EE” value [1] was 89.2% and the PDI [1] was 0.13.
For `CCCCCC(CCCCC)OC(=O)CCCCCCCN(CCCCCCCC(=O)OCCC(CCC)CCC)CCCNc1c(NC)c(=O)c1=O` [Compound 65, 3-Propylhexyl 8-((3-((2-(methylamino)-3,4-dioxocyclobut-1-en-1-yl)amino)propyl)(8-oxo-8-(undecan-6-yloxy)octyl)amino)octanoate], the “Size (nm)” value [1] was 83.1 nm, the “% EE” value [1] was 88.6% and the PDI [1] was 0.17.
With `CCCC(CCC)CCOC(=O)CCCCCCCN(CCCCCCCC(=O)OCCC(CCC)CCC)CCCNc1c(NC)c(=O)c1=O` [Compound 53, Bis(3-propylhexyl) 8,8′-((3-((2-(methylamino)-3,4-dioxocyclobut-1-en-1-yl)amino)propyl)azanediyl)dioctanoate] the “Size (nm)” value [1] was 106.7 nm, the “% EE” value [1] was 84.2% and the PDI [1] was 0.28.
For `CCCCCC(CCCCC)CCOC(=O)CCCCCCCN(CCCCCCCC(=O)OC(CCCCC)CCCCC)CCCNc1c(NC)c(=O)c1=O` [Compound 57, 3-Pentyloctyl 8-((3-((2-(methylamino)-3,4-dioxocyclobut-1-en-1-yl)amino)propyl)(8-oxo-8-(undecan-6-yloxy)octyl)amino)octanoate], the “Size (nm)” value [1] was 69.4 nm, the “% EE” value [1] was 90.1% and the PDI [1] was 0.12.
In the case of `CCCCC(CCCC)CCOC(=O)CCCCCCCN(CCCCCCCC(=O)OCCC(CCC)CCC)CCCNc1c(NC)c(=O)c1=O` [Compound 52, 3-Butylheptyl 8-((3-((2-(methylamino)-3,4-dioxocyclobut-1-en-1-yl)amino)propyl)(8-oxo-8-((3-propylhexyl)oxy)octyl)amino)octanoate], the “Size (nm)” value [1] is reported as 70.5 nm, the “% EE” value [1] is reported as 84.9% and the PDI [1] is reported as 0.16.
For `CCCCC(CCCC)OC(=O)CCCCCCCN(CCCCCCCC(=O)OCCC(CCC)CCC)CCCNc1c(NC)c(=O)c1=O` [Compound 66, Nonan-5-yl 8-((3-((2-(methylamino)-3,4-dioxocyclobut-1-en-1-yl)amino)propyl)(8-oxo-8-((3-propylhexyl)oxy)octyl)amino)octanoate], the “Size (nm)” value [1] was 145.3 nm, the “% EE” value [1] was 81.7% and the PDI [1] was 0.25.
For `CCCCCC(CCCCC)OC(=O)CCCCCCCN(CCCCCCCC(=O)OCCC(CCCC)CCCC)CCCNc1c(NC)c(=O)c1=O` [Compound 61, 3-Butylheptyl 8-((3-((2-(methylamino)-3,4-dioxocyclobut-1-en-1-yl)amino)propyl)(8-oxo-8-(undecan-6-yloxy)octyl)amino)octanoate], the “Size (nm)” value [1] was 63.5 nm, the “% EE” value [1] was 98.1% and the PDI [1] was 0.09.
With `CCCCCC(CCCCC)CCOC(=O)CCCCCCCN(CCCCCCCC(=O)OCCC(CCCC)CCCC)CCCNc1c(NC)c(=O)c1=O` [Compound 54, 3-Butylheptyl 8-((3-((2-(methylamino)-3,4-dioxocyclobut-1-en-1-yl)amino)propyl)(8-oxo-8-((3-pentyloctyl)oxy)octyl)amino)octanoate] the “Size (nm)” value [1] was 64.3 nm, the “% EE” value [1] was 98.3% and the PDI [1] was 0.10.
With `CCCCCCCC(CCCCCCC)OC(=O)CCCCCCCN(CCCCCCCC(=O)OCCC(CCC)CCC)CCCNc1c(NC)c(=O)c1=O` [Compound 63, Pentadecan-8-yl 8-((3-((2-(methylamino)-3,4-dioxocyclobut-1-en-1-yl)amino)propyl)(8-oxo-8-((3-propylhexyl)oxy)octyl)amino)octanoate] the “Approx. Percent Total Dose of Parent Lipid Remaining at 24 h” value [2] was 9 ± 3%, the “Size (nm)” value [1] was 56.2 nm and the “% EE” value [1] was 98.1%. For the same molecule, the PDI [1] was 0.15.
In the case of `CCCCCCC(CCCCCC)OC(=O)CCCCCCCN(CCCCCCCC(=O)OCCC(CCCC)CCCC)CCCNc1c(NC)c(=O)c1=O` [Compound 60, 3-Butylheptyl 8-((3-((2-(methylamino)-3,4-dioxocyclobut-1-en-1-yl)amino)propyl)(8-oxo-8-(tridecan-7-yloxy)octyl)amino)octanoate], the “Size (nm)” value [1] is reported as 60.4 nm, the “% EE” value [1] is reported as 98.8% and the PDI [1] is reported as 0.14.
